The experiment concerns the target ATR kinase (full-length ATR) (Homo sapiens (Human), UniProt Q13535). Nature of the experiment: ATR inhibition assay (radioactive-phosphate incorporation). The format is biochemical. In short, it runs like this:
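Ki(app) was fitted by non-linear regression to background-corrected initial rates. Full-length ATR (5 nM) phosphorylated 800 μM peptide using 10 μM [γ-33P]ATP at 25° C in Tris/HCl pH 7.5 buffer with MgCl2, DTT and 7% DMSO. After 10-minute compound pre-incubation and 24-hour reaction, phosphocellulose filters were scintillation counted.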

The mark [1] stands for this setting: Ki(app), 5 nM full-length ATR, 10 μM ATP, 25° C.

Molecules are shown by their SMILES. pKi: −log10 of the molar value. Read-outs that look alike come from different tables or passages of the source.

One may read the pKi as the negative decadic logarithm of the Ki, by convention in mol/L.

ATR kinase (full-length ATR), sequence (Q13535 whole entry): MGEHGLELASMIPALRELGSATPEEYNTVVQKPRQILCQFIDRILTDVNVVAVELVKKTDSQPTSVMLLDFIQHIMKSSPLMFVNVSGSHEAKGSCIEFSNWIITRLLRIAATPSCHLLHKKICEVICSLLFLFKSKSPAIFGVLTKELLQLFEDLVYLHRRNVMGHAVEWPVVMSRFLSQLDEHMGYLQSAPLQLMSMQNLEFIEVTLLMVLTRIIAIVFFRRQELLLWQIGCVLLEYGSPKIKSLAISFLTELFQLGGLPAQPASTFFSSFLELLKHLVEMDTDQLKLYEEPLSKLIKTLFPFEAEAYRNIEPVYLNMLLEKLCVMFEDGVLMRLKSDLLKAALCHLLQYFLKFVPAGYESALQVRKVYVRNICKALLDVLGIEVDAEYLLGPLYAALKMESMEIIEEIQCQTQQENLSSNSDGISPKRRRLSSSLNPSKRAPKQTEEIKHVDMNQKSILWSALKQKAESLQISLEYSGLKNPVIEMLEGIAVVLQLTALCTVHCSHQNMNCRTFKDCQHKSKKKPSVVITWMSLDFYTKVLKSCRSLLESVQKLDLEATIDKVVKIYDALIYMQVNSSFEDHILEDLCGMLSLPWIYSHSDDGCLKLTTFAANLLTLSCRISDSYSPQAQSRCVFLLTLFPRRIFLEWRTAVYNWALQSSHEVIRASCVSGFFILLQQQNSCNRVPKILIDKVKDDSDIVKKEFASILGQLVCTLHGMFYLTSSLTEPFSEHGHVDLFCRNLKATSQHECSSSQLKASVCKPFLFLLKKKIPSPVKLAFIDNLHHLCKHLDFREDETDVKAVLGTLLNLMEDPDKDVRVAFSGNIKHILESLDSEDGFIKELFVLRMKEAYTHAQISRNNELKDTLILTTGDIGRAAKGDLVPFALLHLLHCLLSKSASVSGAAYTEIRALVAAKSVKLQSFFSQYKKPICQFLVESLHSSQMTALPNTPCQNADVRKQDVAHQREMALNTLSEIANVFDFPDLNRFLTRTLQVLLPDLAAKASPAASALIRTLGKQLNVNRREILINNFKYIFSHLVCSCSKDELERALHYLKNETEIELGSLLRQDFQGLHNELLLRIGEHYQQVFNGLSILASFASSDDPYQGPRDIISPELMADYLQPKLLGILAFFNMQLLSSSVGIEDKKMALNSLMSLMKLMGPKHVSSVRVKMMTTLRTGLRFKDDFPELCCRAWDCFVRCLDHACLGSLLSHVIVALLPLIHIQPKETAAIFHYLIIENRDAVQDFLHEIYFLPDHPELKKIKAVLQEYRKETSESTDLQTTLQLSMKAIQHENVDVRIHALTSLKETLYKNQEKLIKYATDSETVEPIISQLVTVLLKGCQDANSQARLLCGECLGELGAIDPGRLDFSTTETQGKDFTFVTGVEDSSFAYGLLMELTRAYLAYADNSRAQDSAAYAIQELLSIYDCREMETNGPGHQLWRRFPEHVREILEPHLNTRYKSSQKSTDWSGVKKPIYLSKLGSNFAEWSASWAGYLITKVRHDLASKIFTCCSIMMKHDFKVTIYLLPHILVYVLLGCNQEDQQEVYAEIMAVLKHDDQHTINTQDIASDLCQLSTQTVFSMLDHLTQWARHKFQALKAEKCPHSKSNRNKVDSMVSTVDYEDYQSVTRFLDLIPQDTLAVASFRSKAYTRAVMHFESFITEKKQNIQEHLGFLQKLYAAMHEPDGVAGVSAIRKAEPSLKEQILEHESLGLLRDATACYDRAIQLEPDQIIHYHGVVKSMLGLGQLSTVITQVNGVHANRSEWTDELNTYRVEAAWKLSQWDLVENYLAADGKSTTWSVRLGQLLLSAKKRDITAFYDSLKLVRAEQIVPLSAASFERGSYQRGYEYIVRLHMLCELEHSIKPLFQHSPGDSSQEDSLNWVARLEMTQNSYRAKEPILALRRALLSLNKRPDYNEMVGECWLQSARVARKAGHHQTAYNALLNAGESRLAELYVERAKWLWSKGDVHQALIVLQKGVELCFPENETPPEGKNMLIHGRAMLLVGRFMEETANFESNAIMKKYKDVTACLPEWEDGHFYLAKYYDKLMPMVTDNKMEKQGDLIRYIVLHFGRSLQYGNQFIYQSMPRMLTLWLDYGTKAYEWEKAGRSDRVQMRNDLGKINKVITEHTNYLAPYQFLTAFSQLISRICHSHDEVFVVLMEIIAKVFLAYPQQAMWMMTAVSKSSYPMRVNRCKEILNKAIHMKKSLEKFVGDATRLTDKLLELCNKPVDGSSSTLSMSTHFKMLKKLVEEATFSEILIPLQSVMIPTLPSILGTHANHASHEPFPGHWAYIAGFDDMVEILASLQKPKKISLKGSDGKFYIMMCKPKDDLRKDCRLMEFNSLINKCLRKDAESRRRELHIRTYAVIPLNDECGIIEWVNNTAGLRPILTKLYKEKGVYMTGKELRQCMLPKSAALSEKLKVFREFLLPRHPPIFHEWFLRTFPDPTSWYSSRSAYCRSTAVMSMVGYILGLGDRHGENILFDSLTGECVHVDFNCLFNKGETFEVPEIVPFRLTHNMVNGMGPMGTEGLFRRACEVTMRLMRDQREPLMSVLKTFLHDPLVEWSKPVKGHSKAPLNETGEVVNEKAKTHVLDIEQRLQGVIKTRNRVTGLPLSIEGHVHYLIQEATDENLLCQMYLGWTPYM

`CN1CCCN(C(=O)C2CCN(c3c(F)cncc3NC(=O)c3c(N)nn4cc(F)cnc34)CC2)CC1` [I-G-6, 2-amino-6-fluoro-N-(5-fluoro-4-(4-(4-methyl-1,4-diazepane-1-carbonyl)piperidin-1-yl)pyridin-3-yl)pyrazolo[1,5-a]pyrimidine-3-carboxamide]: the negative logarithm of the Ki (pKi) under setting [1] is 6.00 to 8.00. `COC(=O)N1CCN(c2c(F)cncc2NC(=O)c2c(N)nn3cc(F)cnc23)CC1` [I-N-261, methyl-4-(3-(2-amino-6-fluoropyrazolo[1,5-a]pyrimidine-3-carboxamido)-5-fluoropyridin-4-yl)piperazine-1-carboxylate]: the pKi under setting [1] is 6.00 to 8.00. The same measure, in the same setting: then `CN1CCN(C(=O)C2(C#N)CCN(c3c(F)cncc3NC(=O)c3c(N)nn4cc(F)cnc34)CC2)CC1` [I-G-25, 2-amino-N-(4-(4-cyano-4-(4-methylpiperazine-1-carbonyl)piperidin-1-yl)-5-fluoropyridin-3-yl)-6-fluoropyrazolo[1,5-a]pyrimidine-3-carboxamide], with 6.00 to 8.00; and `Cc1ccncc1NC(=O)c1c(N)nn2cc(CC#N)cnc12` [I-C-3, 2-amino-6-(cyanomethyl)-N-(4-methylpyridin-3-yl)pyrazolo[1,5-a]pyrimidine-3-carboxamide], with 6.00 to 8.00. Turning to `CN1CC(OC2CCN(c3ccncc3NC(=O)c3c(N)nn4cc(F)cnc34)CC2)C1` [I-N-164, 2-amino-6-fluoro-N-(4-(4-((1-methylazetidin-3-yl)oxy)piperidin-1-yl)pyridin-3-yl)pyrazolo[1,5-a]pyrimidine-3-carboxamide], the negative-log Ki (pKi) under setting [1] is 6.00 to 8.00.

As to `CN1CCN(CC2CCN(c3c(F)cncc3NC(=O)c3c(N)nn4cc(F)cnc34)CC2)C(=O)C1` [I-N-193, 2-amino-6-fluoro-N-(5-fluoro-4-(4-((4-methyl-2-oxopiperazin-1-yl)methyl)piperidin-1-yl)pyridin-3-yl)pyrazolo[1,5-a]pyrimidine-3-carboxamide], under setting [1], the negative logarithm of the Ki (pKi) is 6.00 to 8.00.

In the case of `CN1CCC(N(C)S(=O)(=O)C2CCN(c3c(F)cncc3NC(=O)c3c(N)nn4cc(F)cnc34)CC2)CC1` [I-N-148, 2-amino-6-fluoro-N-(5-fluoro-4-(4-(N-methyl-N-(1-methylpiperidin-4-yl)sulfamoyl)piperidin-1-yl)pyridin-3-yl)pyrazolo[1,5-a]pyrimidine-3-carboxamide], the pKi under setting [1] was 6.00 to 8.00.

With `COC1CN(C(=O)C2CCN(c3ccncc3NC(=O)c3c(N)nn4cc(F)cnc34)CC2)C1` [I-G-78, 2-amino-6-fluoro-N-(4-(4-(3-methoxyazetidine-1-carbonyl)piperidin-1-yl)pyridin-3-yl)pyrazolo[1,5-a]pyrimidine-3-carboxamide], the pKi under setting [1] was 6.00 to 8.00.

On to `Nc1nn2cc(F)cnc2c1C(=O)Nc1cncc(F)c1N1CCC(CN2CCCC2=O)CC1` [I-N-213, 2-amino-6-fluoro-N-(5-fluoro-4-(4-((2-oxopyrrolidin-1-yl)methyl)piperidin-1-yl)pyridin-3-yl)pyrazolo[1,5-a]pyrimidine-3-carboxamide], for which the pKi under setting [1] is 6.00 to 8.00. The same measure, in the same setting: then `CN1CCN(CC2CCN(c3c(F)cncc3NC(=O)c3c(N)nn4cc(F)cnc34)CC2)CC1=O` [I-N-171, 2-amino-6-fluoro-N-(5-fluoro-4-(4-((4-methyl-3-oxopiperazin-1-yl)methyl)piperidin-1-yl)pyridin-3-yl)pyrazolo[1,5-a]pyrimidine-3-carboxamide], with 6.00 to 8.00.

As for `Nc1nn2cc(Cl)cnc2c1C(=O)Nc1cnccc1N1C2CCC1CC(O)C2` (stereo not drawn) [I-N-42, 2-amino-6-chloro-N-(4-(3-hydroxy-8-azabicyclo[3.2.1]octan-8-yl)pyridin-3-yl)pyrazolo[1,5-a]pyrimidine-3-carboxamide], the pKi under setting [1] is 6.00 to 8.00.

On to `Nc1nn2cc(F)cnc2c1C(=O)Nc1cncc(F)c1N1CCN(S(=O)(=O)C2CCOCC2)CC1` [I-N-158, 2-amino-6-fluoro-N-(5-fluoro-4-(4-((tetrahydro-2H-pyran-4-yl)sulfonyl)piperazin-1-yl)pyridin-3-yl)pyrazolo[1,5-a]pyrimidine-3-carboxamide], for which the pKi under setting [1] was 6.00 to 8.00. On the same count and under the same terms, the result for `CN1CCN(C2CCN(c3ccncc3NC(=O)c3c(N)nn4cc(Cl)cnc34)CC2)CC1` [I-N-97, 2-amino-6-chloro-N-(4-(4-(4-methylpiperazin-1-yl)piperidin-1-yl)pyridin-3-yl)pyrazolo[1,5-a]pyrimidine-3-carboxamide] reads 6.00 to 8.00; that for `Cc1cc(C(=O)N2CCN(C)CC2)ccc1-c1ccncc1NC(=O)c1c(N)nn2cc(F)cnc12` [I-C-45, 2-amino-6-fluoro-N-(4-(2-methyl-4-(4-methylpiperazine-1-carbonyl)phenyl)pyridin-3-yl)pyrazolo[1,5-a]pyrimidine-3-carboxamide], 6.00 to 8.00. On the same count and under the same terms, the result for `Nc1nn2cc(F)cnc2c1C(=O)Nc1cnccc1N1CCN(S(=O)(=O)C2COC2)CC1` [I-N-195, 2-amino-6-fluoro-N-(4-(4-(oxetan-3-ylsulfonyl)piperazin-1-yl)pyridin-3-yl)pyrazolo[1,5-a]pyrimidine-3-carboxamide] reads 6.00 to 8.00; that for `Nc1nn2cc(Cl)cnc2c1C(=O)Nc1cnccc1N1CC[S+]([O-])CC1` [I-N-68, 2-amino-6-chloro-N-(4-(1-oxidothiomorpholino)pyridin-3-yl)pyrazolo[1,5-a]pyrimidine-3-carboxamide], 6.00 to 8.00; that for `Nc1nn2cc(F)cnc2c1C(=O)Nc1cnccc1N1CCN2C(=O)CCCC2C1` (stereo not drawn) [I-N-244, 2-amino-6-fluoro-N-(4-(6-oxohexahydro-1H-pyrido[1,2-a]pyrazin-2(6H)-yl)pyridin-3-yl)pyrazolo[1,5-a]pyrimidine-3-carboxamide], 6.00 to 8.00. Still for that read-out and setting: the result for `Nc1nn2cc(F)cnc2c1C(=O)Nc1cncc(F)c1N1CCN(S(=O)(=O)C2COC2)CC1` [I-N-201] reads 6.00 to 8.00. For the compound `Nc1nn2cc(F)cnc2c1C(=O)Nc1cncc(F)c1N1CCS(=O)(=O)CC1` [I-N-250, 2-amino-N-(4-(1,1-dioxidothiomorpholino)-5-fluoropyridin-3-yl)-6-fluoropyrazolo[1,5-a]pyrimidine-3-carboxamide], the negative logarithm of the Ki (pKi) under setting [1] is 6.00 to 8.00. On the same count and under the same terms, the result for `COC1(C)CN(C(=O)C2CCN(c3c(F)cncc3NC(=O)c3c(N)nn4cc(F)cnc34)CC2)C1` [I-G-75, 2-amino-6-fluoro-N-(5-fluoro-4-(4-(3-methoxy-3-methylazetidine-1-carbonyl)piperidin-1-yl)pyridin-3-yl)pyrazolo[1,5-a]pyrimidine-3-carboxamide] reads 6.00 to 8.00. Same read-out and setting: then `Nc1nn2cc(Cl)cnc2c1C(=O)Nc1cnccc1N1CCn2ccnc2C1` [I-N-44, 2-amino-6-chloro-N-(4-(5,6-dihydroimidazo[1,2-a]pyrazin-7(8H)-yl)pyridin-3-yl)pyrazolo[1,5-a]pyrimidine-3-carboxamide], with 6.00 to 8.00; and `COc1ccncc1NC(=O)c1c(N)nn2cc(C(C)C#N)cnc12` (stereo not drawn) [I-O-21, 2-amino-6-(1-cyanoethyl)-N-(4-methoxypyridin-3-yl)pyrazolo[1,5-a]pyrimidine-3-carboxamide], with 6.00 to 8.00.

With `CC(C)(C#N)c1cnc2c(C(=O)Nc3cncc(F)c3N3CCN(C4COC4)CC3)c(N)nn2c1` [I-N-144], the pKi is 5.30 to 6.00. Take `CCN1CCCC1C(=O)N1CCN(c2c(F)cncc2NC(=O)c2c(N)nn3cc(F)cnc23)CC1` (stereo not drawn) [I-N-185, 2-amino-N-(4-(4-(1-ethylpyrrolidine-2-carbonyl)piperazin-1-yl)-5-fluoropyridin-3-yl)-6-fluoropyrazolo[1,5-a]pyrimidine-3-carboxamide]: under setting [1], the negative-log Ki (pKi) is 6.00 to 8.00.

For the origin of these results see patent US10392391B2 (Vertex Pharmaceuticals Incorporated, priority 2012, dated 2019).
